According to patent US20180273538A1, “PYRROLO[2,3-d]PYRIMIDINE DERIVATIVES, A PROCESS FOR THEIR PREPARATION AND PHARMACEUTICAL COMPOSITIONS CONTAINING THEM” (LES LABORATOIRES SERVIER, priority 2015, published 2018):

How the values were obtained:
phospho-Ser520-DYRK1A = target: T1, phospho-Ser520-DYRK1A (Homo sapiens, UniProt Q13627); experiment: Cellular DYRK1A autophosphorylation assay in U2-OS cells; assay type: cell-based; details: 5 hours exposure, read-out: IC50 (μM) P-Ser520-Dyrk1A-Cell assay
T1 construct: full-length, wild-type human DYRK1A (NM_001396) with an HA tag; expressed in transfected cells; host or cells: human U2-OS osteosarcoma cells, pcDNA3.1 plasmid

[1] = target: T2, His-TEV-DYRK1A Kinase domain (aa127-485) (Homo sapiens, UniProt Q13627); experiment: Kinase ADP assay (ADP Hunter Plus); assay type: biochemical
T2 construct: His-TEV-DYRK1A Kinase domain (aa127-485); His (N); TEV cleavage site (N)

Row | SMILES | IC50 (phospho-Ser520-DYRK1A) | IC50 [1]
1 | C#Cc1cc(-c2ccc3c(c2)OCO3)c2c(-c3cc(N)nc(N)c3)c[nH]c2n1 [Example 221, 4-[4-(1,3-benzodioxol-5-yl)-6-ethynyl-1H-pyrrolo[2,3-b]pyridin-3-yl]pyridine-2,6-diamine] | 0.132 µM | 0.016 µM
2 | C#Cc1cc(-c2ccc3c(c2)OCO3)c2c(-c3ccnc(N)c3)c[nH]c2n1 [Example 220, 4-[4-(1,3-benzodioxol-5-yl)-6-ethynyl-1H-pyrrolo[2,3-b]pyridin-3-yl]pyridin-2-amine] | 0.193 µM | 0.034 µM
3 | Cc1nc(-c2cccc(OC(F)(F)F)c2)c2c(-c3ccnc(N)c3)c[nH]c2n1 [Example 181] | 0.15 µM | 0.019 µM
4 | Cc1nc(-c2ccc3c(c2)OC(F)(F)O3)c2c(-c3ccnc(N)c3)c[nH]c2n1 [Example 164, 4-[4-(2,2-difluoro-1,3-benzodioxol-5-yl)-2-methyl-7H-pyrrolo[2,3-d]pyrimidin-5-yl]pyridin-2-amine] | 0.0883 µM | 0.015 µM
5 | Cc1nc(-c2cc3ccccc3s2)c2c(-c3ccnc(N)c3)c[nH]c2n1 [Example 182] | 0.0142 µM | 0.013 µM
6 | Cc1nc(C#CC2CC2)c2c(-c3cc(N)nc(N)c3)c[nH]c2n1 [Example 196] | 0.172 µM | 0.023 µM
7 | Cc1nc(-c2cc3ccccc3o2)c2c(-c3ccnc(N)c3)c[nH]c2n1 [Example 183] | 0.029 µM | 0.006 µM
8 | Cc1nc(C#Cc2ccccc2F)c2c(-c3ccnc(N)c3)c[nH]c2n1 [Example 194] | 0.017 µM | 0.007 µM
9 | N#Cc1cc(-c2ccc3c(c2)OCO3)c2c(-c3cc(N)nc(N)c3)c[nH]c2n1 [Example 224, 4-(1,3-benzodioxol-5-yl)-3-(2,6-diaminopyridin-4-yl)-1H-pyrrolo[2,3-b]pyridine-6-carbonitrile] | 0.225 µM | 0.03 µM
10 | Nc1cc(-c2c[nH]c3nc(C#CC4CC4)cc(-c4ccc5c(c4)OCO5)c23)cc(N)n1 [Example 218, 4-[4-(1,3-benzodioxol-5-yl)-6-(cyclopropylethynyl)-1H-pyrrolo[2,3-b]pyridin-3-yl]pyridine-2,6-diamine] | 0.0289 µM | 0.015 µM
11 | Cc1nc(NCc2cccc3c2OCO3)c2c(-c3ccnc(N)n3)c[nH]c2n1 [Example 208, 5-(2-aminopyrimidin-4-yl)-N-(1,3-benzodioxol-4-ylmethyl)-2-methyl-7H-pyrrolo[2,3-d]pyrimidin-4-amine] | 0.0041 µM | 0.01 µM
12 | Cc1nc(-c2cc(F)c3c(c2)OCO3)c2c(-c3ccnc(N)c3)c[nH]c2n1 [Example 191] | 0.0443 µM | 0.006 µM
13 | Nc1cc(-c2c[nH]c3nc(C#CC4CC4)nc(-c4ccc5c(c4)OCO5)c23)cc(N)n1 [Example 154, 4-[4-(1,3-benzodioxol-5-yl)-2-(cyclopropylethynyl)-7H-pyrrolo[2,3-d]pyrimidin-5-yl]pyridine-2,6-diamine] | 0.053 µM | 0.013 µM
14 | COc1cccc(C(F)(F)F)c1CNc1nc(C)nc2[nH]cc(-c3ccncc3)c12 [Example 145, N-[2-methoxy-6-(trifluoromethyl)benzyl]-2-methyl-5-(pyridin-4-yl)-7H-pyrrolo[2,3-d]pyrimidin-4-amine] | 0.471 µM | 0.042 µM
15 | Cc1nc(NCc2cccc3c2OCO3)c2c(-c3cc(N)nc(N)c3)c[nH]c2n1 [Example 128, 4-{4-[(1,3-benzodioxol-4-ylmethyl)amino]-2-methyl-7H-pyrrolo[2,3-d]pyrimidin-5-yl}pyridine-2,6-diamine] | 0.0093 µM | 0.009 µM
16 | Cc1ccc2sc(-c3nc(C)nc4[nH]cc(-c5ccnc(N)c5)c34)cc2c1 [Example 184] | 0.0319 µM | 0.012 µM
17 | Nc1cc(-c2c[nH]c3nc(C#CC4CC4)nc(NCc4c(F)cccc4F)c23)ccn1 [Example 152, 5-(2-aminopyridin-4-yl)-2-(cyclopropylethynyl)-N-(2,6-difluorobenzyl)-7H-pyrrolo[2,3-d]pyrimidin-4-amine] | 0.0101 µM | 0.012 µM
18 | Nc1cc(-c2c[nH]c3nc(C#CC4CC4)nc(-c4ccc5c(c4)OCO5)c23)ccn1 [Example 153, 4-[4-(1,3-benzodioxol-5-yl)-2-(cyclopropylethynyl)-7H-pyrrolo[2,3-d]pyrimidin-5-yl]pyridin-2-amine] | 0.0146 µM | 0.011 µM
19 | C=C(C)c1nc(NCc2c(F)cccc2F)c2c(-c3ccnc(N)c3)c[nH]c2n1 [Example 149, 5-(2-aminopyridin-4-yl)-N-(2,6-difluorobenzyl)-2-(prop-1-en-2-yl)-7H-pyrrolo[2,3-d]pyrimidin-4-amine] |  | 0.734 µM
20 | Cc1nc(NCc2nccs2)c2c(-c3ccnc(N)c3)c[nH]c2n1 [Example 39, 5-(2-aminopyridin-4-yl)-2-methyl-N-(1,3-thiazol-2-ylmethyl)-7H-pyrrolo[2,3-d]pyrimidin-4-amine] |  | 0.084 µM
21 | Cc1nc(Nc2ccccc2C(F)(F)F)c2c(-c3ccnc(N)c3)c[nH]c2n1 [Example 130, 5-(2-aminopyridin-4-yl)-2-methyl-N-[2-(trifluoromethyl)phenyl]-7H-pyrrolo[2,3-d]pyrimidin-4-amine] |  | 0.26 µM

Row | SMILES | IC50 (phospho-Ser520-DYRK1A) | IC50 [1]
22 | Cc1nc(NCc2cccc(F)c2)c2c(-c3ccnc(N)c3)c[nH]c2n1 [Example 50, 5-(2-aminopyridin-4-yl)-N-(3-fluorobenzyl)-2-methyl-7H-pyrrolo[2,3-d]pyrimidin-4-amine] |  | 0.045 µM
23 | Cc1nc(OCCc2ccccc2)c2c(-c3ccncc3)c[nH]c2n1 [Example 10, 2-methyl-4-(2-phenylethoxy)-5-(pyridin-4-yl)-7H-pyrrolo[2,3-d]pyrimidine] |  | 0.085 µM
24 | Cc1nc(OCCC2CC2)c2c(-c3ccncc3)c[nH]c2n1 [Example 8, 4-(2-cyclopropylethoxy)-2-methyl-5-(pyridin-4-yl)-7H-pyrrolo[2,3-d]pyrimidine] |  | 0.038 µM
25 | Cc1cc(-c2cncc(F)c2)c2c(-c3ccnc(N)c3)c[nH]c2n1 [Example 214, 4-[4-(5-fluoropyridin-3-yl)-6-methyl-1H-pyrrolo[2,3-b]pyridin-3-yl]pyridin-2-amine] |  | 0.242 µM
26 | Cc1nc(N[C@@H](C)c2ncccc2F)c2c(-c3ccnc(N)c3)c[nH]c2n1 [Example 122, 5-(2-aminopyridin-4-yl)-N-[(1S)-1-(3-fluoropyridin-2-yl)ethyl]-2-methyl-7H-pyrrolo[2,3-d]pyrimidin-4-amine] |  | 0.05 µM
27 | COc1ccc(COc2nc(C)nc3[nH]cc(-c4ccnc(N)c4)c23)cc1 [Example 26, 4-{4-[(4-methoxybenzyl)oxy]-2-methyl-7H-pyrrolo[2,3-d]pyrimidin-5-yl}pyridin-2-amine] |  | 0.029 µM
28 | Cc1nc(-c2cncc(F)c2)c2c(-c3ccnc(N)c3)c[nH]c2n1 [Example 170] |  | 1.82 µM
29 | Cc1nc(-c2ccc(C#N)c(F)c2)c2c(-c3ccnc(N)c3)c[nH]c2n1 [Example 175] |  | 0.146 µM
30 | Cc1nc(-c2cccc(OCCN3CCOCC3)c2)c2c(-c3ccnc(N)c3)c[nH]c2n1 [Example 204] |  | 0.089 µM
31 | Cc1nc(N2CCC(C(F)(F)F)CC2)c2c(-c3ccnc(N)c3)c[nH]c2n1 [Example 105, 4-{2-methyl-4-[4-(trifluoromethyl)piperidin-1-yl]-7H-pyrrolo[2,3-d]pyrimidin-5-yl}pyridin-2-amine] |  | 0.121 µM
32 | Cc1nc(N2CCC2c2ccccc2)c2c(-c3ccnc(N)c3)c[nH]c2n1 (stereo not drawn) [Example 103, 4-[2-methyl-4-(2-phenylazetidin-1-yl)-7H-pyrrolo[2,3-d]pyrimadin-5-yl]pyridin-2-amine] |  | 0.694 µM
33 | Cc1nc(N2CCOC(C)C2)c2c(-c3ccnc(N)c3)c[nH]c2n1 (stereo not drawn) [Example 137, 4-[2-methyl-4-(2-methylmorpholin-4-yl)-7H-pyrrolo[2,3-d]pyrimidin-5-yl]pyridin-2-amine] |  | 0.336 µM
34 | Cc1nc(N2CCC3(CCCCC3)CC2)c2c(-c3ccnc(N)c3)c[nH]c2n1 [Example 101, 4-[4-(3-azaspiro[5.5]undec-3-yl)-2-methyl-7H-pyrrolo[2,3-d]pyrimidin-5-yl]pyridin-2-amine] |  | 0.034 µM
35 | Cc1nc(N(C)C)c2c(-c3ccnc(N)c3)c[nH]c2n1 [Example 29, 5-(2-aminopyridin-4-yl)-N,N,2-trimethyl-7H-pyrrolo[2,3-d]pyrimidin-4-amine] |  | 0.062 µM
36 | Cc1nc(Nc2ccccc2C(F)(F)F)c2c(-c3cc(N)nc(N)c3)c[nH]c2n1 [Example 131, 4-(2-methyl-4-{[2-(trifluoromethyl)phenyl]amino}-7H-pyrrolo[2,3-d]pyrimidin-5-yl)pyridine-2,6-diamine] |  | 0.6 µM
37 | Cc1nc(N2CCC(N(C)C)C2)c2c(-c3ccnc(N)c3)c[nH]c2n1 (stereo not drawn) [Example 31, 4-{4-[3-(dimethylamino)pyrrolidin-1-yl]-2-methyl-7H-pyrrolo[2,3-d]pyrimidin-5-yl}pyridin-2-amine] |  | 1.07 µM
38 | Cc1nc(N2CCCC(C)C2)c2c(-c3ccnc(N)c3)c[nH]c2n1 (stereo not drawn) [Example 97, 4-[2-methyl-4-{3-methylpiperidin-1-yl)-7H-pyrrolo[2,3-d]pyrimidin-5-yl]pyridin-2-amine] |  | 0.063 µM
39 | COc1ccccc1C#Cc1nc(C)nc2[nH]cc(-c3ccnc(N)c3)c12 [Example 197] |  | 0.009 µM
40 | C=Cc1nc(NCc2c(F)cccc2F)c2c(-c3ccnc(N)c3)c[nH]c2n1 [Example 151, 5-(2-aminopyridin-4-yl)-N-(2,6-difluorobenzyl)-2-ethenyl-7H-pyrrolo[2,3-d]pyrimidin-4-amine] |  | 0.028 µM
41 | Cc1nc(OCCc2c[nH]c3ccccc23)c2c(-c3ccncc3)c[nH]c2n1 [Example 9, 4-[2-(1H-indol-3-yl)ethoxy]-2-methyl-5-(pyridin-4-yl)-7H-pyrrolo[2,3-d]pyrimidine] |  | 0.06 µM
42 | Cc1nc(-c2cccc(OCCCl)c2)c2c(-c3ccnc(N)c3)c[nH]c2n1 [Example 201] |  | 0.012 µM
